{"source": "patent US8426365B2", "about": "“Method of treating or preventing tissue deterioration, injury or damage due to congestive heart failure” (Regenerx Biopharmaceuticals, Inc., priority 2005, dated 2013)", "key": {"[1]": {"system": "mouse MI-induced heart failure model", "experiment": "Mouse myocardial infarction (MI) heart failure model", "assay_type": "in vivo, C57 black mice", "details": "150 μg/mouse i.p. immediately after MI, then every three days for 4 weeks", "method": "The procedures used in this study are exactly same as that reported in Nature (432:466-472, 2004). Briefly, C57 black mice, 14 weeks old, were used in this study. Mice were given thymosin β4 (Bachem, Lot #FTHYB40501B) (150 μg/mouse) immediately after myocardial infarction and then every three days for 4 weeks by i.p. injection. The parameters of this study included cardiac morphology and function by echocardiography (echo), invasive cardiac function measurement using Millar catheter, survival rate, and histochemical analysis."}, "normal (BL10) mice [2]": {"system": "normal (BL10) mice", "experiment": "Grip strength meter, normal (BL10) mice", "assay_type": "in vivo", "details": "BL10 treated", "method": "(§1) Four groups of mice were treated with thymosin beta 4. Group 1 was normal mice (BL10) that were given placebo (untreated). Group 2 was normal mice that were treated with thymosin beta 4. Group 3 was dystrophin deficient (mdx) mice treated with placebo and Group 4 was mdx mice treated with thymosin beta 4. Mice were treated with 150 micrograms of thymosin beta 4 in 300 microliters of buffer given intraperitoneally twice a week and placebo mice were given 300 microliters of buffer only. The mice exercised on a treadmill at a speed of 12 meters/minute for 30 minutes twice a week. Functional, behavioral and echocardiographic data were obtained at baseline and after 2 months, 4 months and 6 months of treatment.\n(§2) Functional data were non-invasive measurements of skeletal muscle function. The muscle strength of the forelimbs and hindlimbs was assessed using a grip strength meter. The animals were allowed to hold onto the meter platform and then were slowly pulled until they lost their grip. The amount of force needed to free the grip was recorded. Multiple measurements were taken for each mouse at each time point. The same protocol was followed for hindlimb muscle strength. Another functional assessment was the Rotarod test. Here, mice were placed on a rotating bar and kept their balance and position as the bar rotated with increasing speed (10 RPM for 1 minute and then increased 0.2 RPM over the next three minutes). The time until the mouse falls was measured. This test was also repeated multiple times."}, "[3]": {"system": "dystrophin deficient (mdx) mice", "experiment": "Grip strength meter, dystrophin deficient (mdx) mice", "assay_type": "in vivo", "details": "Mdx treated", "method": "as §1, §2"}, "normal (BL10) mice [4]": {"system": "normal (BL10) mice", "experiment": "VersaMax animal activity monitoring, normal (BL10) mice", "assay_type": "in vivo", "details": "BL10 treated", "method": "as §1\n(§3) Behavioral data was collected using the VersaMax™ animal activity monitoring system. Mice were placed in a monitored box and activity was quantified by different sensors. Data includes horizontal activity, vertical activity and total distance traveled and many other activity parameters were measured. Multiple measurements were made over a 3 day period."}, "[5]": {"system": "dystrophin deficient (mdx) mice", "experiment": "VersaMax animal activity monitoring, dystrophin deficient (mdx) mice", "assay_type": "in vivo", "details": "Mdx treated", "method": "as §1, §3"}, "normal (BL10) mice [6]": {"system": "normal (BL10) mice", "experiment": "Rotarod test, normal (BL10) mice", "assay_type": "in vivo", "details": "BL10 treated, time until the mouse falls", "method": "as §1\nas §2, with “Here, mice were placed on a rotating bar and kept their balance and position as the bar rotated with increasing speed (10 RPM for 1 minute and then increased 0.2 RPM over the next three minutes).” left out, “This test was also repeated multiple times.” left out"}, "[7]": {"system": "dystrophin deficient (mdx) mice", "experiment": "Rotarod test, dystrophin deficient (mdx) mice", "assay_type": "in vivo", "details": "Mdx treated, time until the mouse falls", "method": "as §1\nas §2, with “Here, mice were placed on a rotating bar and kept their balance and position as the bar rotated with increasing speed (10 RPM for 1 minute and then increased 0.2 RPM over the next three minutes).” left out, “This test was also repeated multiple times.” left out"}, "[8]": {"system": "heart attack in the mouse model", "details": "administered immediately following a heart attack; Nature 2004; cited from earlier work"}, "[9]": {"details": "2 month, 150 micrograms i.p. twice a week"}}, "data": [{"substance": "thymosin beta 4 (SDKPDMAEIEKFDKSKLKKTETQEKNPLPSKETIEQEKQAGES; Thymosin beta-4; UniProt P62328 2-44, looked up) [43 amino acid, 4.9 kDa ubiquitous polypeptide originally isolated from the thymus]", "values": [{"measurement": "left ventricular end diastolic pressure (LVEDP)", "setting": "[1]", "value": "significantly reduced"}, {"measurement": "left ventricular end diastolic volume", "setting": "[1]", "value": "significantly attenuated"}, {"measurement": "left ventricular end systolic volume", "setting": "[1]", "value": "significantly attenuated"}, {"measurement": "left ventricular systolic pressure (LVSP)", "setting": "[1]", "value": "showed a trend in improvement (i.e., a reduction)"}, {"measurement": "rate of change (velocity) in left ventricular pressure-rise with time (dP/dt)", "setting": "[1]", "value": "significantly improved"}, {"measurement": "rate of change (velocity) in left ventricular relaxation", "setting": "[1]", "value": "showed a trend in affecting (improving)"}, {"measurement": "pulmonary edema (lung weight)", "setting": "[1]; listed as TB4", "value": "significantly attenuated"}, {"measurement": "thickening of left ventricle / heart muscle (heart weight)", "setting": "[1]; listed as TB4", "value": "significantly attenuated"}, {"measurement": "Avg max forelimb strength", "setting": "normal (BL10) mice [2]; [9]", "value": 5.73, "unit": "KGF/kg"}, {"measurement": "Avg max hindlimb strength", "setting": "normal (BL10) mice [2]; [9]", "value": 9.18, "unit": "KGF/kg"}, {"measurement": "Avg max forelimb strength", "setting": "normal (BL10) mice [2]; Baseline", "value": 5.57, "unit": "KGF/kg"}, {"measurement": "Avg max hindlimb strength", "setting": "normal (BL10) mice [2]; Baseline", "value": 7.35, "unit": "KGF/kg"}, {"measurement": "Avg max forelimb strength", "setting": "[3]; [9]", "value": 3.78, "unit": "KGF/kg"}, {"measurement": "Avg max hindlimb strength", "setting": "[3]; [9]", "value": 7.29, "unit": "KGF/kg"}, {"measurement": "Avg max forelimb strength", "setting": "[3]; Baseline", "value": 4.46, "unit": "KGF/kg"}, {"measurement": "Avg max hindlimb strength", "setting": "[3]; Baseline", "value": 6.29, "unit": "KGF/kg"}, {"measurement": "Avg horizontal activity", "setting": "normal (BL10) mice [4]; [9]", "value": 1287}, {"measurement": "Avg movement time", "setting": "normal (BL10) mice [4]; [9]", "value": 27, "unit": "s"}, {"measurement": "Avg total distance", "setting": "normal (BL10) mice [4]; [9]", "value": 239, "unit": "cm"}, {"measurement": "Avg vertical activity", "setting": "normal (BL10) mice [4]; [9]", "value": 13.1}, {"measurement": "Avg horizontal activity", "setting": "normal (BL10) mice [4]; Baseline", "value": 1761}, {"measurement": "Avg movement time", "setting": "normal (BL10) mice [4]; Baseline", "value": 41, "unit": "s"}, {"measurement": "Avg total distance", "setting": "normal (BL10) mice [4]; Baseline", "value": 375, "unit": "cm"}, {"measurement": "Avg vertical activity", "setting": "normal (BL10) mice [4]; Baseline", "value": 28}, {"measurement": "Avg horizontal activity", "setting": "[5]; [9]", "value": 961}, {"measurement": "Avg movement time", "setting": "[5]; [9]", "value": 18.9, "unit": "s"}, {"measurement": "Avg total distance", "setting": "[5]; [9]", "value": 167, "unit": "cm"}, {"measurement": "Avg vertical activity", "setting": "[5]; [9]", "value": 8.2}, {"measurement": "Avg horizontal activity", "setting": "[5]; Baseline", "value": 1071}, {"measurement": "Avg movement time", "setting": "[5]; Baseline", "value": 25, "unit": "s"}, {"measurement": "Avg total distance", "setting": "[5]; Baseline", "value": 209, "unit": "cm"}, {"measurement": "Avg vertical activity", "setting": "[5]; Baseline", "value": 12}, {"measurement": "Rotorod", "setting": "normal (BL10) mice [6]; [9]", "value": 191}, {"measurement": "Rotorod", "setting": "normal (BL10) mice [6]; Baseline", "value": 214}, {"measurement": "Rotorod", "setting": "[7]; [9]", "value": 147}, {"measurement": "Rotorod", "setting": "[7]; Baseline", "value": 211}, {"measurement": "ejection fraction", "setting": "[8]", "value": "able to improve"}, {"measurement": "fractional shortening", "setting": "[8]", "value": "able to improve"}]}]}
